Results published in US11842798B2, “Natural product and genetic data analysis and discovery system, method and computational platform therefor” (priority 2015, dated 2023).
Entries after “also recorded” stand apart in the source; their conditions may differ. Read-outs that look alike come from different tables or passages of the source. Numbered stars: 1 amine (or outer) side, 2 acyl side, 3 side chain; on linkers, the order of the positions; unused ones are H or OH. Bridge positions count the residues as written; N and C are the ends. Square brackets hold non-standard residues; d marks the D form. Peptide text beside a SMILES is read from it. X1 = O=C(/C(=C\c1c[nH]c2ccccc12)N[*:1])[*:2]; X2 = CC(c1c[nH]c2ccccc12)C(N[*:1])C(=O)[*:2]; βAsp = O=C(O)[CH](CC(=O)[*:2])N[*:1]

Tests used:
[1] = system: Telomycin-resistant bacteria; experiment: MIC by broth microdilution, telomycin-resistant strains; type: cell-based, S. aureus and B. subtilis; conditions: for activity against resistant strains: compared with telomycin A against sensitive strains
Protocol: (§1) FIG. 46 summarizes MICs of telomycin antibiotics (1-10). Sensitive and resistant strains were exposed to telomycins and MICs were measured by microdilution in CAMHB. MICs were determined after 16 h growth, and are shown in μg ml−1.
(§2) Minimum inhibitory concentrations (MICs) for telomycins were determined using broth microdilution in cation-adjusted Mueller Hinton broth (CAMHB). Bacillus subtilis strains were cultured at 28° C., and S. aureus strains were cultured at 37° C. […] For assessing the impact of treating strains with sodium chloride concentrations prior to telomycin, S. aureus was grown overnight in CAMHB containing 0, 0.5, 1, or 1.5 M NaCl and then MICs were recorded as described above.
To identify mutations that conferred resistance to telomycin, we isolated colonies of S. aureus Newman that appeared inside the zone of inhibition observed during telomycin disk diffusion assays. […] Genomic DNA was extracted from highly resistant isolates and their sensitive parental strain, and sequenced with an Illumina MiSeq platform. Sequences were compared using BreSeq, which exclusively identified mutations in the predominant, house-keeping cardiolipin synthase (cls2). Bacillus subtilis telomycin-resistant mutants were identified in a similar manner, and mutations in cardiolipin synthase were confirmed by sequencing PCR products of the two cardiolipin synthase genes: clsA and clsB. […] PCR primers used for the amplification of B. subtilis cardiolipin synthase genes are as follows— • clsAF: 5′-[…]-3′ (SEQ ID NO: 1); • clsAR: 5′-[…]-3′ (SEQ ID NO: 2); • clsBF: 5′-[…]-3′ (SEQ ID NO: 3); • clsBR: 5′-[…]-3′ (SEQ ID NO: 4). Structure Elucidation

sheep red blood cell = experiment: Red blood cell (RBC) hemolysis assay; type: cell-based; conditions: 0.25% sheep RBC, 256 to 2 μg/mL, 1 h, 37° C.
Protocol: Hemolytic activity of telomycin was measured against a 0.25% sheep red blood cell (RBC, Fisher Scientific) suspension in phosphate-buffered saline. Telomycin was serially diluted from 256 to 2 μg/mL and incubated with the RBC suspension for 1 h at 37° C. in a polypropylene 96-well plate with conical wells. After 1 h, RBCs were pelleted (1000×g for 5 min) and the supernatant was transferred to a flat-bottom polystyrene 96-well plate, measuring absorbance at 540 nm. 1% Triton X-100 was used as a positive control, while DMSO alone and RBCs alone were used as negative controls.
A solution of 0.25% sheep red blood cell suspension in phosphate buffered saline was incubated for 1 h at 37° C. with either a serial dilution of telomycin, 1% Triton X100 (positive lysis control), DMSO alone (1%; negative lysis control), or without added content (negative lysis control). After 1 h RBCs were pelleted and lysis was assessed by measuring absorbance of the supernatant at 540 nm.

[2] = Turbidity of telomycin-lipid mixtures; type: binding; conditions: telomycin mixed with cardiolipin, absorbance at 600 nm, other lipids as contrast
Protocol: To measure the turbidity of telomycin-lipid mixtures, telomycin was dissolved in methanol at a concentration of 12.8 mg/mL, and cardiolipin (Sigma Aldrich; C0563; 98% pure), phosphatidylglycerol (Sigma Aldrich; 63371; ≥98% pure), phosphatidylcholine (Sigma Aldrich; P3556; ≥99% pure), and phosphatidylethanolamine (Sigma Aldrich; P7943; 97% pure) were dissolved in methanol at a concentration of 10 mg/mL. 20 μL of telomycin was mixed with 20, 10, 5, 1, or 0.5 μL of each lipid (final reaction volume 40 μL) in a flat-bottom polystyrene 96-well plate. Optical density (OD=600 nm) was measured after 10 min.
(§3) (a) Mutating cardiolipin synthase provides spontaneous telomycin resistance. Wild type and spontaneously-resistant S. aureus (left) and B. subtilis (right) were exposed to 32×MIC concentrations of telomycin for 90 min. CFUs were taken before treatment (black) and after 90 min (white). Results are shown as ±s.d.; n=4; Two-tailed students t-test. P=0.0018. Data are representative of three independent experiments. […] Telomycin (final concentration 5 mM; 6.3 mg ml^−1) was mixed with CL, PG, PE, or PC at concentrations ranging from 0.125 to 5 mg ml^−1. Mixtures were incubated for 5 min before turbidity was measured using absorbance at 600 nm. […] Telomycin (0.1 mM) was exposed to lipids at concentrations ranging from 1 to 0.05 mM, then used to determine MICs against wild type B. subtilis. […]

B. subtilis [3] = experiment: Bioactivity of telomycin-lipid mixtures on solid agar (diffusion disks); type: cell-based; conditions: excess cardiolipin (2× molar equivalent)
Protocol: To assess the impact of various lipids on telomycin's antibacterial activity on solid agar, 10 μL of 10 mM telomycin was mixed with 10 μL of 20 mM cardiolipin (Sigma Aldrich; C0563; ≥98% pure), phosphatidylglycerol (Sigma Aldrich; 63371; ≥98% pure), phosphatidylcholine (Sigma Aldrich; P3556; ≥99% pure), or phosphatidylethanolamine (Sigma Aldrich; P7943; ≥97% pure). All compounds were dissolved in methanol. Mixtures were incubated for 10 min, then added to diffusion disks, allowed to dry, then placed on a CAMHB agar plate with B. subtilis as an indicator organism. The plate was incubated overnight at 28° C.
as §3

B. subtilis [4] = experiment: Bioactivity of telomycin-lipid mixtures in liquid media (MIC); type: cell-based
Protocol: To assess the impact of various lipids on telomycin's antibacterial activity in liquid media, telomycin was dissolved in methanol at 12.8 mg/mL (approx. 10 mM) and 1 μL was added to a 96-well plate. Lipids were dissolved in methanol and 10 μL of 10, 5, 2, 1, or 0.5 mM lipid was added to each telomycin-containing well. CAMHB inoculated with B. subtilis was added to each well and serially diluted to determine the minimum inhibitory concentration of each telomycin-lipid mixture. Plates were incubated shaking at 28° C. for 16 h.
(§4) (a) Mutating cardiolipin synthase provides spontaneous telomycin resistance. Wild type and spontaneously-resistant S. aureus (left) and B. subtilis (right) were exposed to 32×MIC concentrations of telomycin for 90 min. CFUs were taken before treatment (black) and after 90 min (white). Results are shown as ±s.d.; n=4; Two-tailed students t-test. P=0.0018. Data are representative of three independent experiments. […] Telomycin (final concentration 5 mM; 6.3 mg ml^−1) was mixed with CL, PG, PE, or PC at concentrations ranging from 0.125 to 5 mg ml^−1. Mixtures were incubated for 5 min before turbidity was measured using absorbance at 600 nm. […] Telomycin (0.1 mM) was exposed to lipids at concentrations ranging from 1 to 0.05 mM, then used to determine MICs against wild type B. subtilis. […] (d) Cardiolipin abolishes telomycin's antibacterial activity. […]

[5] = system: Chinese Hamster ovary (CHO) cells; conditions: previous studies; cited from earlier work
[6] = in vivo, cited from earlier work
HEK293 cells = experiment: Cytotoxicity assay (Alamar Blue); type: cell-based, human; conditions: HEK293, 48 h
Protocol: HEK293 cells were obtained from the American Type Culture Collection (ATCC; ATCC CRL-1573) and maintained in Minimal Essential Media (MEM) Alpha modifications supplemented with 10% fetal bovine serum. […] Cells were cultured in 96-well plates containing 200 μL of media and 5000 cells per well. After 3 h of incubation, cells were treated with a serial dilution of telomycin A. Experiments were performed in duplicate with DMSO as a negative control and mitomycin C as a positive control. After 48 h incubation, 10% (22 μL) Alamar Blue (Life Technologies) was added and incubated with cells for 4 h at 37° C. Fluorescence was measured at an excitation wavelength of 530 nm and an emission wavelength of 590 nm and compared to a no-drug control.

S. aureus [7] = experiment: MIC by broth microdilution in CAMHB; type: cell-based
Protocol: as §2
(§5) (a) Structure of telomycin. […] Wild type S. aureus (OD 0.2) was exposed to 8 (1×MIC) or 256 μg ml^−1 (32×MIC) telomycin. Colony-forming units (CFUs) were taken before treatment (black) and after 90 min (white). Results are shown as ±s.d.; n=4; Two-tailed students t-test. P=0.0023. Data are representative of three independent experiments.

B. subtilis [8] = experiment: Colony forming unit (CFU) lysis assay; type: cell-based; conditions: concentrations above the MIC
Protocol: (§6) Cultures of S. aureus and B. subtilis were grown overnight in CAMHB. Starter cultures were used to inoculate fresh media and were grown to OD=0.2, after which they were transferred to 96-well plates. Cultures were serially diluted and plated on CAMHB agar to determine initial colony-forming units. Telomycin dissolved in DMSO was added to each well (1:100) and incubated for 90 min, followed by serial dilution and plating to determine colony-forming units. Results are shown as ±s.d.; n=4; Two-tailed students t-test.
as §4

S. aureus [9] = experiment: Colony forming unit (CFU) lysis assay; type: cell-based
Protocol: as §6, §5
(a) Mutating cardiolipin synthase provides spontaneous telomycin resistance. Wild type and spontaneously-resistant S. aureus (left) and B. subtilis (right) were exposed to 32×MIC concentrations of telomycin for 90 min. CFUs were taken before treatment (black) and after 90 min (white). Results are shown as ±s.d.; n=4; Two-tailed students t-test. P=0.0018. Data are representative of three independent experiments. […] Mixtures were incubated for 5 min before turbidity was measured using absorbance at 600 nm. […]

[10] = system: Telomycin-resistant bacteria; experiment: CFU lysis assay on spontaneously-resistant strains; type: cell-based, S. aureus and B. subtilis; conditions: 32×MIC, 90 min
Protocol: as §6, §4

[11] = system: Sensitive and resistant strains; experiment: MICs of telomycin antibiotics (FIG. 46); type: cell-based
Protocol: as §1, §2

Gram positive organisms = conditions: cited from earlier work

For di-5-methyltryptophan telomycin, the “activity against resistant strains” value [1] was “comparable with the activity of telomycin A against sensitive strains”.
For telomycin A, the hemolysis (sheep red blood cell) was “not hemolytic; also recorded: does not cause hemolysis”, the hemolysis (sheep red blood cell; listed as Telomycin) was “not hemolytic; also recorded: does not Cause Hemolysis” and the “turbidity / precipitation with cardiolipin” value [2] was “rapidly formed an opaque precipitant in a dose-dependent manner”. The “turbidity / precipitation with cardiolipin” value ([2]; listed as Telomycin) was “uniquely and rapidly acquire turbidity”, the “effect of cardiolipin on antibacterial activity of telomycin” value (B. subtilis [3]) was “completely abolish; also recorded: abolishes” and the “effect of phosphatidylglycerol on antibacterial activity of telomycin” value (B. subtilis [4]; phosphatidylglycerol in 10× molar excess) was “some protective effect”. For the same compound, the “effect of cardiolipin on antibacterial activity of telomycin (MIC)” value (B. subtilis [4]; telomycin 0.1 mM, lipids 1 to 0.05 mM) was “reduces telomycin's antibacterial activity in a dose-dependent manner”, the “toxicity: not observed at concentrations up to” value [5] was > 40 µg/mL and the “increase in MIC” value ([1]; telomycin-resistant bacteria generated with limited passaging, versus sensitive parent) was 16 fold. The “efficacy in animal studies” value [6] was “demonstrated efficacy; also recorded: demonstrated value in vivo”, the “toxicity in animals / mammals” value [6] was “without apparent toxicity” and the “toxicity in animals / mammals” value ([6]; listed as Telomycin) was “not known to possess significant toxicity”. For the same compound, the “cytotoxicity: not observed at concentrations up to” value (HEK293 cells) was > 128 µg/mL, the “telomycin activity after growth in high salinity” value (S. aureus [7]; S. aureus grown in CAMHB with 0, 0.5, 1, or 1.5 M NaCl) was “improved” and the MIC (S. aureus [7]; Wild type S. aureus) was 8 µg/mL. The lysis of bacteria (B. subtilis [8]) was “rapid lysis”, the lysis of bacteria (S. aureus [9]; concentrations above the MIC) was “rapid lysis” and the “lysis (CFUs before and after treatment)” value (S. aureus [9]; wild type S. aureus OD 0.2, 256 μg ml^−1 (32×MIC), 90 min) was “lyses S. aureus at high concentrations”. For the same compound, the “lysis of telomycin-resistant bacteria” value [10] was “refractory to lysis”.
In the case of “N-carboxyfluorescein telomycin [fluorescein-labelled telomycin conjugate]”, the “antimicrobial activity relative to telomycin” value [11] is reported as “slight decrease”.
In the case of LL-AO341β, the “activity relative to telomycin” value (Gram positive organisms) is given as “improved activity” and the “cross-resistance with other antibacterial agents” value (Gram positive organisms; previous observations) is given as “does not demonstrate cross-resistance”.
In the case of `CC(C)CC1NC(=O)C(C(C)c2c[nH]c3ccccc23)NC(=O)/C(=C\c2c[nH]c3ccccc23)NC(=O)C2CCCN2C(=O)CNC(=O)C(C)NC(=O)C(C(C)O)NC(=O)C(NC(=O)C(CO)NC(=O)CC(N)C(=O)O)C(C)OC(=O)C2CCCN2C1=O` (stereo not drawn) [telomycin F] (βAsp-STTAGP[X1][X2]LP; ester 2-C; configuration not given here), the “activity against resistant strains” value [1] is reported as “comparable with the activity of telomycin A against sensitive strains”.
